In US20130203718A1 (priority 2010, published 2013):

Columns and labels:
hPRB = target: T1, hPRB (Homo sapiens, UniProt P06401); experiment: PR transactivation assay (GRE2-Luc) in HEK293T cells transiently expressing hPRB; type: cell-based; design: expressed in transfected cells; host or cells: HEK 293T
T1 sequence (P06401 1-933): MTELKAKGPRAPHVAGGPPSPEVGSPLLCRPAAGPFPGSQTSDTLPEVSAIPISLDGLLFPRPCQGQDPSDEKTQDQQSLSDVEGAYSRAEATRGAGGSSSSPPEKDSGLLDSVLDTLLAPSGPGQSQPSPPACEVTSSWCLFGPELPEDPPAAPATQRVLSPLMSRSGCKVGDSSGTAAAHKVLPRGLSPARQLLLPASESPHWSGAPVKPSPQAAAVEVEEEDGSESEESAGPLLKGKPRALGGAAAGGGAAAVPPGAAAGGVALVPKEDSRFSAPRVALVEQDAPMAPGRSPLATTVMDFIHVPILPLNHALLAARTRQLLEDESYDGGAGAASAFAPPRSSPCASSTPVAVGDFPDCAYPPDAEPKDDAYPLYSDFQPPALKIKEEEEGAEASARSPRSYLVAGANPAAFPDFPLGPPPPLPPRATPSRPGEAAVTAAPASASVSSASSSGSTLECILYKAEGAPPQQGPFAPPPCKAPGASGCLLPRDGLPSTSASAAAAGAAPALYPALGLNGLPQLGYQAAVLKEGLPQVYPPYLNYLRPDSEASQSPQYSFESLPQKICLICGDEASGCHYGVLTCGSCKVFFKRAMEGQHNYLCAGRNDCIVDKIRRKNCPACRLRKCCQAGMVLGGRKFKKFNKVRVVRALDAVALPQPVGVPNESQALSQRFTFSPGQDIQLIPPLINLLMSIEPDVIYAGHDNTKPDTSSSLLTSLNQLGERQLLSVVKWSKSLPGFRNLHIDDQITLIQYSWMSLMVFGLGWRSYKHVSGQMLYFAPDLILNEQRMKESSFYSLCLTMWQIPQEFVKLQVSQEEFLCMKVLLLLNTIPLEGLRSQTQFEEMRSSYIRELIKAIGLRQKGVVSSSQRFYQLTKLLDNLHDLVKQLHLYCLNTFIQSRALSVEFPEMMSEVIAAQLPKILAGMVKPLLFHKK
Description: PR Transactivation Assays in HEK 293T.
HEK 293T cells were routinely cultured in a high-glucose DMEM medium (Invitrogene, Cergy Pontoise, France), 20 mM HEPES, 2 mM glutamine, 1× non essential amino acids, 100 U/mL penicillin and 100 μg/mL streptomycin supplemented with 10% foetal calf serum (FCS) in a humidified atmosphere at 37° C. and with 5% CO2. One day before transfection, the cells were seeded at 3×10^6 cells/[…] diameter culture Petri dish and cultured overnight in the same medium. Six hours before transfection, the FCS supplemented medium was replaced by the same medium supplemented with 10% dextran-charcoal treated FCS. Transfections were carried out using the calcium phosphate precipitation method. The calcium phosphate precipitate was prepared with 0.5 μg pchPRB (Petit-Topin, et al Mol Pharmacol, 2009, 75, 1317), 7 μg reporter vector (GRE2-Luc from A. Biola-Vidamment and M. Pallardy) and 1 μg of pcβgal for an internal transfection control, in 1 mL 140 mM NaCl, 0.75 mM Na2HPO4, 25 mM HEPES, 125 mM CaCl2 pH 7.05 and added to the cells 30 minutes later. After 16 h incubation, the transfected cells were washed with PBS containing 2.5 mM EDTA, trypsinized and pooled. The transfected cells were replated in 24-well plates (100.000 transfected cells/well). […] Cells were lysed in 300 μl PBS 1×, 25 mM glycylglycine, 4 mM EDTA, 15% glycerol, 1% triton X-100, 15 mM MgSO4, pH 7.8 supplemented with 2 mM β-mercaptoethanol. The luciferase activities were quantified by using a Mithras LB940 reader microplates (Berthold).
The APRn “agonist efficacy” was determined from the following formula:
Agonist efficacy=[luciferase activity]1/[luciferase activity]2×100
The APRn “antagonist efficacy” was calculated from the following formula:
Antagonist efficacy=100−[luciferase activity]1/[luciferase activity]2×100
The results are the mean±SEM of three to five independent experiments.
All the synthesized APRn were classified in 4 series depending on the nature of their C3 substituent (R1/R′1 groups). The first one (series 1) includes APRn with no C3 substituent (R1═R′1═H) whereas series 2, 3 and 4 are related to APRn bearing a methoxyl (R1═OMe), a hydroxyl (R1═OH) and a fluorine atom (R1═F), respectively. The agonist/antagonist activities of APRn were determined either in human HEK293T cells transiently expressing hPRB or in human MDA-MB-231 iPRAB cells conditionally expressing hPRB, by using a luciferase reporter gene placed under the control of a glucocorticoid response element (GRE2-Luc). The APRn “agonist efficacy” was determined from the luciferase activity measured in the presence of APRn (1 μM). […] The “agonist efficacy” and “antagonist efficacy” are expressed as defined in the biological protocols section.

[1] = series 1 (no C3 substituent), HEK293T, APRn 1 μM, FIG. 1
[2] = series 2-4, stated for both HEK293T and MDA-MB-231 iPRAB cells, APRn 1 μM, FIGS. 3-8

Row | SMILES | hPRB agonist/antagonist character (in words) (hPRB; [1]) | hPRB agonist/antagonist character (in words) (hPRB; [2]) | melting point | also measured
1 | C#C[C@]1(O)CCC2C3CC[C@H]4CCCC[C@@H]4C3CC[C@@]21C (stereo partly drawn) [APR-56, 17α-Ethynyl-19-nor-5-androstan-17β-ol] | full antagonists | – | – | –
2 | CC1CCC2C3CCC4=CC(O)CC[C@]4(C)C3CC[C@]2(C)[C@H]1F (single isomer, unassigned) [APR-07, 17aβ-Fluoro-17α-methyl-D-homo-pregn-4-en-3-ol] | – | most potent hPRB antagonist in this series | 125 to 126 °C | –
3 | CC(=O)[C@H]1CC[C@H]2[C@@H]3CC=C4C=CCC[C@]4(C)[C@H]3CC[C@]12C [APR-12, Pregn-3,5-dien-20-one] | partial antagonist | – | 135 to 136 °C | –
4 | CO[C@H]1CC[C@@]2(C)[C@@H](CC[C@@H]3[C@@H]2CC[C@]2(C)[C@@H](C(C)O)CC[C@@H]32)C1 (mixture of isomers) [APR-28, 3β-Methoxy-5α-pregnan-20-ol] | – | antagonist character without any agonist activity | – | –
5 | C[C@]12CC[C@H](F)CC1=CC[C@@H]1[C@@H]2CC[C@]2(C)C(=O)CC[C@@H]12 [APR-33, 3β-Fluoroandrost-5-en-17-one] | – | efficient hPRB antagonists | 155 to 156 °C | –
6 | CC1CCC2C3CCC4=CC(=O)CC[C@]4(C)C3CC[C@]2(C)[C@H]1F (stereo partly shown) | – | – | 170 to 171 °C | –
7 | C[C@]12CCCC[C@@H]1CC[C@@H]1[C@@H]2CC[C@]2(C)[C@@H](O)CC[C@@H]12 [APR-14, 5α-Androstan-17β-ol] | full antagonists | – | – | –
8 | CO[C@H]1CC[C@@]2(C)C(=CC[C@H]3[C@@H]4CC[C@H](C(C)=O)[C@@]4(C)CC[C@@H]32)C1 [APR-02, 3β-Methoxypregn-5-en-20-one] | – | most potent molecules | – | hPRB agonist/antagonist character (in words) (hPRB; series 2-4, stated for both HEK293T and MDA-MB-231 iPRAB cells, APRn 1 μM, FIGS. 3-8, listed as APR2): antagonist character without any agonist activity
9 | CC1CCC2C3CC=C4C=CCC[C@]4(C)C3CC[C@]2(C)[C@H]1F (stereo partly drawn) [APR-08, 17aβ-Fluoro-17α-methyl-D-homo-pregn-3,5-diene] | partial antagonist | – | – | hPRB agonist/antagonist character (in words) (hPRB; series 1 (no C3 substituent), HEK293T, APRn 1 μM, FIG. 1, listed as APR-8): full antagonists
10 | CC(=O)[C@H]1CC[C@H]2[C@@H]3CC=C4C[C@@H](O)CC[C@]4(C)[C@H]3CC[C@]12C [APR-15, 3β-Hydroxypregn-5-en-20-one] | – | able to activate hPRB, but their agonist efficacies are low | – | –
11 | CC(=O)O[C@@H](C)[C@H]1CC[C@H]2[C@@H]3CC[C@H]4CCCC[C@]4(C)[C@H]3CC[C@]12C [APR-13, 20-Acetoxy-5α-pregnane] | full antagonists | – | – | –
12 | C[C@]12CCCC[C@@H]1CC[C@@H]1[C@@H]2CC[C@]2(C)C(=O)CC[C@@H]12 [APR-23, 5α-Androstan-17-one] | full antagonists | – | 120 to 121 °C | –
13 | CC(O)[C@H]1CC[C@H]2[C@@H]3CC[C@H]4C[C@@H](O)CC[C@]4(C)[C@H]3CC[C@]12C (mixture of isomers) [APR-29, 5α-Pregnan-3β,20-diol] | – | able to activate hPRB, but their agonist efficacies are low | – | –
14 | CC(=O)[C@H]1CC[C@H]2[C@@H]3CC[C@H]4C[C@@H](O)CC[C@]4(C)[C@H]3CC[C@]12C [APR-20, 3β-Hydroxy-5α-pregnan-20-one] | – | able to activate hPRB, but their agonist efficacies are low | – | –
15 | C[C@]12CC[C@H]3[C@@H](CC=C4C[C@@H](F)CC[C@@]43C)[C@@H]1CC[C@@H]2O [APR-41, 3β-Fluoro-androst-5-en-17β-ol] | – | – | 165 to 166 °C | –
16 | C[C@]12CCC3C(CC=C4C[C@@H](F)CC[C@@H]43)C1CC[C@@H]2O (stereo partly drawn) [APR-46, 31-Fluoro-19-nor-androst-5-en-17β-ol] | – | efficient hPRB antagonists | 121 to 122 °C | –
17 | C[C@H](O)[C@H]1CCC2C3CCC4CCCC[C@]4(C)C3CC[C@@]21C (stereo partly shown) [APR-10, 20-Hydroxypregnane] | full antagonists | – | – | –
18 | C[C@]12CCC3C(CC[C@H]4CCCC[C@H]34)C1CC[C@@H]2O (stereo partly drawn) [APR-52, 19-nor-5-Androstan-17β-ol] | full antagonists | – | – | –
19 | C[C@]12CCC3C(CC=C4C[C@@H](O)CC[C@@H]43)C1CC[C@@H]2O (stereo partly drawn) [APR-48, 19-nor-Androst-5-en-3β,17β-diol] | – | Except for APR48, the molecules of this series behave as antagonists | – | –
20 | C[C@H](O)[C@H]1CC[C@H]2[C@@H]3CC=C4C[C@@H](F)CC[C@]4(C)[C@H]3CC[C@]12C [APR-24, 3β-Fluoropregn-5-en-20-ol] | – | efficient hPRB antagonists | – | –
21 | CC1CCC2C3CC=C4CC5(CC[C@]4(C)C3CC[C@]2(C)[C@H]1F)OCCO5 (stereo partly drawn) [APR-05, 17aβ-Fluoro-17α-methyl-D-homo-3-ethylenedioxo-5-androstene] | – | – | 146 to 147 °C | –
22 | CC(=O)[C@H]1CC[C@H]2[C@@H]3CC[C@H]4CCCC[C@]4(C)[C@H]3CC[C@]12C [APR-01, 5α-pregnan-20-one] | partial hPRB agonist | – | – | antagonist efficacy (hPRB; HEK293T, APRn 1 μM plus progesterone 1 nM, FIG. 1): 48%; efficacy to activate hPRB (agonist efficacy) (hPRB; HEK293T, APRn 1 μM, relative to 1 nM progesterone, FIG. 1): 30%
23 | C#CC(C)(O)[C@H]1CC[C@H]2[C@@H]3CC[C@H]4C[C@@H](F)CC[C@]4(C)[C@H]3CC[C@]12C (stereo partly drawn) [APR-26, 20-Ethynyl-3β-fluoro-5α-pregnan-20-ol] | – | – | 230 to 231 °C | –
24 | C#CC(C)(O)[C@H]1CC[C@H]2[C@@H]3CC[C@H]4C[C@@H](OC)CC[C@]4(C)[C@H]3CC[C@]12C (stereo partly drawn) [APR-30, 20-Ethynyl-3β-methoxy-5α-pregnan-20-ol] | – | – | 168 to 169 °C | –
25 | C#CC(C)(O)[C@H]1CC[C@H]2[C@@H]3CC=C4C[C@@H](F)CC[C@]4(C)[C@H]3CC[C@]12C (stereo partly drawn) [APR-21, 20-Ethynyl-3β-fluoropregn-5-en-20-ol] | – | – | 213 to 214 °C | –
